The values that follow are results of earlier work, collected in patent publication EP2637636B1, “LEAVE-ON NONSOLID SKIN CONDITIONING COMPOSITIONS CONTAINING 12-HYDROXYSTEARIC ACID” (Unilever PLC, priority 2010, dated 2012).

The conditions of this series: surfactants used in the Examples.

On to `CCCCCCCCCCCCNC(=O)[C@H](O)[C@@H](O)[C@H](O[C@@H]1O[C@H](CO)[C@H](O)[C@H](O)[C@H]1O)[C@H](O)CO` [C12 lactobionamide], for which the HLB is recorded as greater than 7.
As to Sorbitan Monostearate [Span 60], the HLB is given as 4.7.
As to Hexadecyl n-methyl glucamide, the HLB is recorded as greater than 7.
As for Glyceryl hydroxystearate, the HLB entry was “about 5”.
